Active and inactive are the calls of the source.
Tests used:
[1] = inhibitors of firefly luciferase expression or activity, dose response, H4 neuroglioma cells, luminescence (AID 1990); format: functional, cell-based
[2] = Luminescence Cell-Based Dose Response HTS to Identify Inhibitors of 5'UTR Stem-Loop Driven Prion Protein mRNA Translation in H4 Neuroglioblastoma Cells. [Related pubchem assays: 1827 (Project Summary), 1813 (Primary HTS)]; format: functional
[3] = inhibitors of SNCA 5'UTR-driven reporter translation, confirmation, H4 neuroglioma cells, luminescence (AID 1988); format: functional, cell-based
[4] = inhibitors of intracellular T. cruzi replication, confirmation, NIH3T3 host cells, beta-gal luminescence (AID 2044); format: functional, cell-based;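 further: intracellular parasites grown in NIH/3T3 mouse fibroblasts as host cells; luminescent beta-galactosidase reporter signal from transgenic T. cruzi replicating inside host cells; inhibitors lower the luminescence signal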
[5] = cytotoxicity toward NIH3T3 fibroblasts, dose response, counter-screen, cell-based, ATP luminescence, mouse fibroblasts (AID 2010); format: functional;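 further: cells exposed to compound for about 90 hours before reading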
[6] = target: Induced myeloid leukemia cell differentiation protein Mcl-1 (Homo sapiens, UniProt Q07820); format: functional
Sequence of Induced myeloid leukemia cell differentiation protein Mcl-1 (Q07820 whole entry): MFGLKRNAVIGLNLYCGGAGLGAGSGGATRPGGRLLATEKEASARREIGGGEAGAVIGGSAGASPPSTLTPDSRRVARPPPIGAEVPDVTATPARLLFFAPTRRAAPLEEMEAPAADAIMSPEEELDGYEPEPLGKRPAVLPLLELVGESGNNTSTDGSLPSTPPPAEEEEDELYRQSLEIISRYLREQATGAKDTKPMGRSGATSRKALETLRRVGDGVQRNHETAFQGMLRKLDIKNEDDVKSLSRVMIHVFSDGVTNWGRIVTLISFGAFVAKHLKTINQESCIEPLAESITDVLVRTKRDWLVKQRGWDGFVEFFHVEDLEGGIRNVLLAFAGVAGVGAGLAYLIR

[7] = A549 cell cytotoxicity, dose response, cytotoxicity control, plate reader, cherry-pick, antagonist series (AID 743412); format: functional, cell-based
[8] = HepG2 cell cytotoxicity, dose response, cytotoxicity control, plate reader, cherry-pick, antagonist series (AID 743416); format: functional, cell-based
[9] = LGR2 antagonists, dose response, cell-based, HEK293, CRE-luciferase reporter, cherry pick, set 2 (AID 743343); format: functional;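 further: transfected cells were stimulated with diluted bursicon conditioned medium after compound addition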
[10] = MC4R antagonists, dose response, counter-screen for LGR2 antagonist project, cell-based, plate reader, cherry pick (AID 743444); format: functional;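 further: transfected HEK 293 cells stimulated with alpha-MSH peptide; potency of inhibitors of the alpha-MSH evoked signal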
[11] = HEK293 cell cytotoxicity, dose response, cytotoxicity control, plate reader, cherry-picked samples (AID 743446); format: functional, cell-based
[12] = cytotoxicity in HEK-293T cells, dose response, cytotoxicity control for TCR NF-kB inhibitor project, luminescence, T-cell screen hits (AID 489026); format: functional, cell-based;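 further: cells exposed to compound about 14 hours before the viability readout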
P388/ADR = assay: cells; format: functional; conditions: Mus musculus
SN12K1 = assay: cells; format: functional; conditions: Homo sapiens
P388 = assay: cells; format: functional; conditions: Mus musculus
[13] = Luminescence Cell-Based Dose Response HTS to Identify Activators of Luciferase Translation or Activity in H4 […] Cells. [Related pubchem assays: 1829 (Project Summary), 1814 (Primary HTS)]; format: functional
H4 = assay: Luminescence Cell-Based Dose Response HTS to Identify Activators of 5'UTR Stem-Loop Driven Prion Protein mRNA Translation in H4 Neuroglioblastoma Cells. [Related pubchem assays: 1829 (Project Summary), 1814 (Primary HTS)]; format: functional; conditions: Homo sapiens
[14] = P. falciparum Dd2 growth inhibitors, dose response, SYBR Green, cherry-picked samples (AID 1159567); format: functional, cell-based
H9c2 = assay: cells; format: functional, cell-based; conditions: Rattus norvegicus, H9c2, Myocardium;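 further: confirmatory concentration-response retest of ultra-high-throughput screening hits for modulation of myocardial damage; cell death induced by hydrogen peroxide oxidative stress; compound pretreatment for 60 min then peroxide exposure for 2 h; potency is for protecting the cells against peroxide damage rather than for killing them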
[15] = Vero E6 cell cytotoxicity, dose response, cytotoxicity control for non-replicating M. tuberculosis project, secondary assay (AID 492998); format: functional, VeroE6; conditions: Vero C1008
cells = format: functional
Large T antigen = Large T antigen (Simian virus 40, UniProt P03070); format: functional, Betapolyomavirus macacae;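 further: Confirmatory-stage PubChem screen for compounds that inhibit SV40 T antigen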
Sequence of Large T antigen (P03070 whole entry, the tested form may be a part): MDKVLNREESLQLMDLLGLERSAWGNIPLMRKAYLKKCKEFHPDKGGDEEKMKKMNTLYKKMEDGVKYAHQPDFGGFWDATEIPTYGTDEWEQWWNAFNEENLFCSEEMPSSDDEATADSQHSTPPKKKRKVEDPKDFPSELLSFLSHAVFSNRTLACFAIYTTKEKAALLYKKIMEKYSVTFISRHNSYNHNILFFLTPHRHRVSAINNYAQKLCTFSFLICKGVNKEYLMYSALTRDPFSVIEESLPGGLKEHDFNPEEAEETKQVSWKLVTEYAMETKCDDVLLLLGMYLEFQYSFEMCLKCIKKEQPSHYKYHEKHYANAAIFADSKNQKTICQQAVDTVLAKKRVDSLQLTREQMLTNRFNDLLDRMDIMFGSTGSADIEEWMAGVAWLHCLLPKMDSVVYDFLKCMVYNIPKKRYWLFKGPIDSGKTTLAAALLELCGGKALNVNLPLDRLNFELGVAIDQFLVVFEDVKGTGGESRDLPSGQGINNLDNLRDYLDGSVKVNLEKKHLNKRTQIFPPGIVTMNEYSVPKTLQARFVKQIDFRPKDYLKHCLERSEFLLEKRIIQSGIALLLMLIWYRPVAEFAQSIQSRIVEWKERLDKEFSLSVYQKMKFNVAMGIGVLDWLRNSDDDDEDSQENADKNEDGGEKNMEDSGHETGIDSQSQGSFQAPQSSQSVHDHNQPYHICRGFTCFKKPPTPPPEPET

[16] = target: T1, RNA-binding protein pos-1 (Caenorhabditis elegans, UniProt G5EF15); assay: inhibitors of POS-1/mex-3 RNA binding, dose response, biochemical, fluorescence polarization (AID 1964);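 further: purified POS-1 fused to maltose binding protein made in E. coli; potency of compounds blocking POS-1 binding to fluorescent RNA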
T1 sequence (G5EF15 whole entry): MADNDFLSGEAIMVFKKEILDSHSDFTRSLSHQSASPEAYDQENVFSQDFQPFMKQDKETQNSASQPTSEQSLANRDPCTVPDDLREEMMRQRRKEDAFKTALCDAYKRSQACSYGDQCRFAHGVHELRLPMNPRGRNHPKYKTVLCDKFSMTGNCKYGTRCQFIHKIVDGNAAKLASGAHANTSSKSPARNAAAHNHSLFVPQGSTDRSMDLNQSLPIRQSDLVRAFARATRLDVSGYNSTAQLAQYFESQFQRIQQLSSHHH

[17] = target: T2, Zinc finger protein mex-5 (Caenorhabditis elegans, UniProt Q9XUB2); assay: MEX-5/TCR-2 RNA interaction inhibitors, dose response, biochemical, C. elegans, fluorescence polarization (AID 1960)
T2 sequence (Q9XUB2 whole entry): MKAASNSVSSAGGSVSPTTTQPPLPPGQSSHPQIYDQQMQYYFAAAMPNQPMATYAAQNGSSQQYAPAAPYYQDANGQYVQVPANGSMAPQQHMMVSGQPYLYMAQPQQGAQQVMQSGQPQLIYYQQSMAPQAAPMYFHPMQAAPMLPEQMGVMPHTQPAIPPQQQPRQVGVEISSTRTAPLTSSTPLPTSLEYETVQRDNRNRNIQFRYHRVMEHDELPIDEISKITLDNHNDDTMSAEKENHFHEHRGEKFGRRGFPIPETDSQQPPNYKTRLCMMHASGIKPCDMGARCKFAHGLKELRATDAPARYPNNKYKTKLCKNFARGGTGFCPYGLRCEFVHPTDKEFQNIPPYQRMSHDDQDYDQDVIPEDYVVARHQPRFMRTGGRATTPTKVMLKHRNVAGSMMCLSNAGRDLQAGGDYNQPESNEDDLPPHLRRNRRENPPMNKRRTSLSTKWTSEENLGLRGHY

[18] = target: Heat shock protein HSP 90-alpha (Homo sapiens, UniProt P07900); format: functional, organism-based
[19] = Luminescence Cell-Based Dose Retest to Confirm Inhibitors of Cancer Stem Cells. [Related pubchem assays (depositor defined):AID2717, AID2721]; format: functional; conditions: Homo sapiens
[20] = target: T3, High affinity choline transporter 1 (Homo sapiens, UniProt Q9GZV3); assay: CHT inhibitors, dose response, cell-based, 5-point CRC, membrane potential dye (AID 504840); format: functional
T3 sequence (Q9GZV3 whole entry): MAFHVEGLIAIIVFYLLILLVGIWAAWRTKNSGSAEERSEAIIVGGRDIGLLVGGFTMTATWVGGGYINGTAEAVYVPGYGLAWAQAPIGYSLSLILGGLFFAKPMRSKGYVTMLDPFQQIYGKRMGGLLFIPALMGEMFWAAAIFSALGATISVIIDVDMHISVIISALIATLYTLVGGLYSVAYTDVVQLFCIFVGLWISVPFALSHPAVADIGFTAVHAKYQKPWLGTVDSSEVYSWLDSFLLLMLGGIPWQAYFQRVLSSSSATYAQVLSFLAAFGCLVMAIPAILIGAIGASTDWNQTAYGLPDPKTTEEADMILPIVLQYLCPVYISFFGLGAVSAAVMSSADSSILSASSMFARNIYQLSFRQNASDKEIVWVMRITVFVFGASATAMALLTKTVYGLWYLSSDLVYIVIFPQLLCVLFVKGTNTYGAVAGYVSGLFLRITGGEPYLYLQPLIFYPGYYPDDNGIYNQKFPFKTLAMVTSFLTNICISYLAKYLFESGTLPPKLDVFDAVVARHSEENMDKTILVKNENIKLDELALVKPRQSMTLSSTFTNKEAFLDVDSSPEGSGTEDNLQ

Compound: O=[N+]([O-])c1nn(-c2ccccc2)[n+]([O-])c1NC1CCN(Cc2ccccc2)CC1
- EC50 [1]: 14 µM (active)
- EC50 [2]: > 120 µM (not active)
- EC50 [3]: 10.9 µM (active)
- EC50 [4]: 0.25 µM (active)
- EC50 [5]: > 60 µM (not active)

Compound: O=C(CSc1nc2ccccc2s1)Nc1cc(S(=O)(=O)N2CCOCC2)ccc1O
- IC50 [6]: 1.75 µM (active)

Compound: Cc1ccc(C(=O)Nc2ccc3c(c2)OCCO3)c(C)c1
- AC50 [7]: 44.6 µM (active)
- AC50 [8]: > 52 µM (inactive)
- AC50 [9]: 2.74 µM (active)
- AC50 [10]: 2.42 µM (active)
- AC50 [11]: > 52 µM (inactive)

Compound: CCOc1ccccc1NC(=O)CN(c1ccc(OC)cc1)S(=O)(=O)c1c(C)noc1C
- IC50 [12]: > 80 µM (inactive)

Compound: COc1cc([C@@H]2c3cc4c(cc3[C@@H](OC3OC5COC(C)OC5C(O)C3O)[C@H]3COC(=O)[C@H]23)OCO4)cc(OC)c1O (some centres undefined)
- GI50 (P388/ADR): 58.6 µM (inactive)
- GI50 (SN12K1): 1.17 µM (inactive)
- GI50 (P388): 0.275 µM (active)

Compound: CCOc1ccccc1/C=C(/NC(=O)c1ccccc1)C(=O)N(CC)CC
- EC50 [1]: > 120 µM (not active)
- EC50 [2]: > 120 µM (not active)
- EC50 [3]: > 120 µM (not active)

Compound: Cc1cc(C)c2nc(-n3nc(C)cc3N)cc(C)c2c1
- EC50 [13]: 32.5 µM (active)
- EC50 (H4): 1.71 µM (active)

Compound: COc1ccccc1NC(=O)N1CC[C@H]2[C@@H]1c1cc(C#Cc3ccc(F)cc3)ccc1N(C)[C@H]2CO
- AC50 [14]: 4.14 µM (active)

Compound: O=[N+]([O-])c1cccc2c1[nH]c1c(-c3ccccc3)nccc12
- GI50 (P388/ADR): 2.52 µM (inactive)
- GI50 (SN12K1): 1.72 µM (inactive)
- GI50 (P388): 2.52 µM (inactive)

Compound: COc1ccc(OC)c(C2CC(=O)c3c([nH]c(C(=O)OC(C)C)c3C)C2)c1 (centres undefined)
- IC50 [12]: > 80 µM (inactive)

Compound: C=CC[C@@H](CC(=O)NCCO)C(=O)NC[C@H](OC(=O)[C@@H](CC=C)Cc1ccc(F)cc1)c1ccccc1
- IC50 (H9c2): > 79 µM (inactive)

Compound: CCCCCN1C=CC(=C2C(=O)c3ccccc3C2=O)C=C1
- IC50 [12]: > 80 µM (inactive)

Compound: COC(=O)N/N=C/c1ccc([N+](=O)[O-])s1
- CC50 [15]: > 20 µM (active)
- IC50 (cells): 30.5 µM (active)

Compound: O=C(N/N=C/c1c[nH]c2ccccc12)c1ccc(O)c(O)c1
- IC50 (Large T antigen): 9.13 µM (active)

Compound: [O-][n+]1c2c([n+]([O-])c3c1CCCC3)CCCC2
- EC50 [1]: > 120 µM (not active)
- EC50 [2]: > 120 µM (not active)
- EC50 [3]: > 120 µM (not active)

Compound: COc1ccc(C2=CC3=C(Br)C(=O)C(C)(OC(=O)C4CCCC4)C(=O)C3=CO2)cc1 (centres undefined)
- EC50 [16]: 43.7 µM (active)
- EC50 [17]: > 300 µM (not active)
- AC50 [18]: 1.68 µM (active)

Compound: COc1ccccc1C1=NOC(COc2ccc3c(C)cc(=O)oc3c2)C1 (centres undefined)
- AC50 [19]: 0.224 µM (active)
- IC50 [12]: > 80 µM (inactive)

Compound: O=C(COc1ccc2c(c1)OCO2)Nc1nccs1
- AC50 [7]: > 52 µM (inactive)
- AC50 [8]: > 52 µM (inactive)
- AC50 [9]: 7.13 µM (active)
- AC50 [10]: 10.2 µM (active)
- AC50 [11]: 20.6 µM (active)

Compound: O=C(NC1CCCCC1)C(c1ccc2ncccc2c1)N(Cc1ccc2c(c1)OCO2)C(=O)c1ccc2c(c1)OCCO2 (centres undefined)
- IC50 [20]: 15.1 µM (active)
